In publication PMC9490236, “Accurate de novo design of membrane-traversing macrocycles” (Cell, 2022) one finds PAMPA_R1, PAMPA_R3 and Papp data, which are given here for seven molecules.

A word on the Papp: it is a coefficient for how fast a substance crosses the barrier. Read a low Papp as poor permeation.

For series [1] the following is noted: PAMPA. Background: PAMPA measures passive passage across an artificial lipid membrane.
The nature of series [2]: in vitro. As to conditions: PAMPA, PAMPA_Papp_Avg.

Where a SMILES comes first, the peptide text is derived from it. [ ]: non-standard residue; d: D form. NMeF = CN[C@@H](Cc1ccccc1)C(=O)O; dNMeF = CN[C@H](Cc1ccccc1)C(=O)O; NMeL = CN[C@@H](CC(C)C)C(=O)O; dNMeL = CN[C@H](CC(C)C)C(=O)O; NMeV = CN[C@H](C(=O)O)C(C)C; dNMeA = CN[C@H](C)C(=O)O

Regarding `CC[C@@H](C)[C@H]1NC(=O)[C@@H](Cc2ccccc2)N(C)C(=O)[C@@H]2CCCN2C(=O)[C@@H]([C@H](C)CC)NC(=O)[C@@H](Cc2ccccc2)N(C)C(=O)[C@@H]2CCCN2C1=O` [Design D6.2, DILE PRO *DPHE DILE PRO *DPHE] (cyclo(P[dNMeF][dI]P[dNMeF][dI])), in series [1], the PAMPA_R1 was 1.72e-05 cm/s and the PAMPA_R3 is 1.15e-05 cm/s. The molecule also returned an apparent permeability coefficient (Papp) in series [2] of 12.1 ×10⁻⁶ cm/s.

In series [1], `CC(C)C[C@@H]1C(=O)N(C)[C@H](C)C(=O)N(C)[C@@H](C(C)C)C(=O)N2CCC[C@@H]2C(=O)N[C@H](C)C(=O)N[C@@H](Cc2ccccc2)C(=O)N2CCC[C@@H]2C(=O)N2CCC[C@H]2C(=O)N[C@H](C(C)C)C(=O)N[C@@H](C(C)C)C(=O)N1C` [Design D10.29, PHE DPRO PRO DVAL VAL *DLEU *DALA *VAL DPRO DALA] (cyclo([dV]V[dNMeL][dNMeA][NMeV][dP][dA]F[dP]P)) gave a PAMPA_R1 of 3.87E-07 and a PAMPA_R3 of 4.67E-07. In series [2], this molecule yielded an apparent permeability (Papp) of 0.441 ×10⁻⁶ cm/s.

In series [1], `CC[C@H](C)[C@@H]1NC(=O)[C@H](Cc2ccccc2)N(C)C(=O)[C@H]2CCCN2C(=O)[C@H]([C@@H](C)CC)NC(=O)[C@H](C(C)C)NC(=O)[C@@H](C)NC(=O)[C@H]2CCCN2C1=O` [Design D7.9, VAL ILE DPRO *PHE ILE DPRO DALA] (cyclo(I[dP][NMeF]I[dP][dA]V)) yielded a PAMPA_R1 of 6.71e-06 cm/s and a PAMPA_R3 of 6.53e-06 cm/s. Also, the apparent permeability (Papp) in series [2] came out at 7.09 ×10⁻⁶ cm/s.

In series [1], `CC[C@@H](C)[C@H]1NC(=O)[C@@H](CC(C)C)NC(=O)[C@@H](CC(C)C)NC(=O)[C@H]2CCCN2C(=O)[C@H](CC(C)C)N(C)C(=O)[C@@H](C)N(C)C(=O)[C@@H]2CCCN2C(=O)[C@@H]([C@H](C)CC)NC(=O)[C@@H](C(C)C)NC(=O)[C@@H]2CCCN2C1=O` [Design D10.46, PRO DVAL DILE PRO *DALA *LEU DPRO DLEU DLEU DILE] (cyclo([NMeL][dP][dL][dL][dI]P[dV][dI]P[dNMeA])) displayed a PAMPA_R1 of 8.07E-07 and a PAMPA_R3 of 6.41E-07. The molecule also returned a Papp in series [2] of 0.684 ×10⁻⁶ cm/s.

In series [1], `CC(C)C[C@@H]1C(=O)N[C@@H](C(C)C)C(=O)N[C@@H](C)C(=O)N2CCC[C@H]2C(=O)N2CCC[C@@H]2C(=O)N[C@@H](C(C)C)C(=O)N[C@@H](C)C(=O)N(C)[C@@H](CC(C)C)C(=O)N1C` [Design D8.22, ALA PRO DPRO VAL ALA *LEU *DLEU VAL] (cyclo(A[NMeL][dNMeL]VAP[dP]V)) registered a PAMPA_R1 of 2.34E-07 and a PAMPA_R3 of 1.57E-07. In addition, in series [2], the Papp was 0.215 ×10⁻⁶ cm/s.

In series [1], `CC(C)C[C@@H]1C(=O)N(C)[C@H](CC(C)C)C(=O)N2CCC[C@H]2C(=O)N[C@H](CC(C)C)C(=O)N2CCC[C@@H]2C(=O)N2CCC[C@@H]2C(=O)N(C)[C@H](CC(C)C)C(=O)N[C@H](Cc2ccccc2)C(=O)N[C@@H](C)C(=O)N1C` [Design D9.18, ALA *DLEU *DLEU PRO DLEU DPRO DPRO *DLEU DPHE] (cyclo(A[dNMeL][dNMeL]P[dL][dP][dP][dNMeL][dF])) displayed a PAMPA_R1 of 1.88E-06 and a PAMPA_R3 of 1.97E-06. This molecule displayed a Papp in series [2] of 1.76 ×10⁻⁶ cm/s.

In series [1], `CC[C@H](C)[C@@H]1NC(=O)[C@@H](C(C)C)NC(=O)[C@H](CC(C)C)N(C)C(=O)[C@H]2CCCN2C(=O)[C@H]2CCCN2C(=O)[C@H](C(C)C)NC(=O)[C@@H](CC(C)C)NC(=O)[C@H]2CCCN2C1=O` [Design D8.16, DPRO DLEU VAL DPRO DPRO *LEU DVAL ILE] (cyclo(I[dP][dL]V[dP][dP][NMeL][dV])) came in with a PAMPA_R1 of 2.86E-06 and a PAMPA_R3 of 1.69E-06. In series [2], this molecule displayed an apparent permeability coefficient (Papp) of 2.16 ×10⁻⁶ cm/s.
